Results reported in ChEMBL document CHEMBL3046206, “Synthesis of new 4-(2,5-dimethylpyrrol-1-yl)/4-pyrrol-1-yl benzoic acid hydrazide analogs and some derived oxadiazole, triazole and pyrrole ring systems: a novel class of potential antibacterial, antifungal and antitubercular agents” (Med Chem Res, 2013).
Converted amounts (≈) assume the structure as drawn.

Assays:
Candida tropicalis = test: Antifungal activity against Candida tropicalis after 18 hr by broth microdilution technique; assay type: functional
Saccharomyces cerevisiae = test: Antifungal activity against Saccharomyces cerevisiae after 18 hr by broth microdilution technique; assay type: functional
Bacillus subtilis = test: Antibacterial activity against Bacillus subtilis after 18 hr by broth microdilution technique; assay type: functional
Escherichia coli = test: Antibacterial activity against Escherichia coli after 18 hr by broth microdilution technique; assay type: functional
Pseudomonas aeruginosa = test: Antibacterial activity against Pseudomonas aeruginosa after 18 hr by broth microdilution technique; assay type: functional
Aspergillus niger = test: Antifungal activity against Aspergillus niger after 18 hr by broth microdilution technique; assay type: functional
Staphylococcus aureus = test: Antibacterial activity against Staphylococcus aureus after 18 hr by broth microdilution technique; assay type: functional
[1] = test system: Mycobacterium tuberculosis; test: Antimycobacterial activity against Mycobacterium tuberculosis H37Rv after 21 days by broth dilution method; assay type: functional; details: 504 h
Klebsiella pneumoniae = test: Antibacterial activity against Klebsiella pneumoniae after 18 hr by broth microdilution technique; assay type: functional
Enterococcus faecalis = test: Antibacterial activity against Enterococcus faecalis after 18 hr by broth microdilution technique; assay type: functional
Vero = test: Cytotoxicity against Chlorocebus aethiops (African green monkey) Vero cells after 72 hr by MTT assay; assay type: cell-based; details: Chlorocebus sabaeus
A549 = test: Cytotoxicity against Homo sapiens (human) A549 cells after 72 hr by MTT assay; assay type: cell-based; details: A549, 72 h

Cc1ccc(C)n1-c1ccc(C(=O)N/N=C/c2ccc(N(C)C)cc2)cc1
MIC (Candida tropicalis): 31.2 µg/mL (≈ 86.7 µM) | MIC (Saccharomyces cerevisiae): 31.2 µg/mL (≈ 86.7 µM) | MIC (Bacillus subtilis): 31.2 µg/mL (≈ 86.7 µM) | MIC (Escherichia coli): 500 µg/mL (≈ 1390 µM) | MIC (Pseudomonas aeruginosa): 500 µg/mL (≈ 1390 µM) | MIC (Aspergillus niger): 31.2 µg/mL (≈ 86.7 µM) | MIC (Staphylococcus aureus): 31.2 µg/mL (≈ 86.7 µM) | MIC [1]: 31.2 µg/mL (≈ 86.7 µM) | MIC (Klebsiella pneumoniae): 62.5 µg/mL (≈ 173 µM) | MIC (Enterococcus faecalis): 31.2 µg/mL (≈ 86.7 µM)

O=C(NNC(=O)c1ccc([N+](=O)[O-])cc1)c1ccc(-n2cccc2)cc1
MIC (Candida tropicalis): 31.2 µg/mL (≈ 89.2 µM) | MIC (Saccharomyces cerevisiae): 31.2 µg/mL (≈ 89.2 µM) | MIC (Bacillus subtilis): 16 µg/mL (≈ 45.7 µM) | MIC (Escherichia coli): 16 µg/mL (≈ 45.7 µM) | MIC (Pseudomonas aeruginosa): 16 µg/mL (≈ 45.7 µM) | MIC (Aspergillus niger): 31.2 µg/mL (≈ 89.2 µM) | MIC (Staphylococcus aureus): 62.5 µg/mL (≈ 178 µM) | MIC [1]: 8 µg/mL (≈ 22.8 µM) | IC50 (Vero): 190 µM | MIC (Klebsiella pneumoniae): > 500 µg/mL | MIC (Enterococcus faecalis): 31.2 µg/mL (≈ 89.2 µM) | IC50 (A549): 198 µM

Cc1ccc(C)n1-c1ccc(C(=O)N/N=C/c2c(Cl)cccc2Cl)cc1
MIC (Candida tropicalis): 4 µg/mL (≈ 10.4 µM) | MIC (Saccharomyces cerevisiae): 31.2 µg/mL (≈ 80.9 µM) | MIC (Bacillus subtilis): 16 µg/mL (≈ 41.4 µM) | MIC (Escherichia coli): 500 µg/mL (≈ 1290 µM) | MIC (Pseudomonas aeruginosa): 500 µg/mL (≈ 1290 µM) | MIC (Aspergillus niger): 4 µg/mL (≈ 10.4 µM) | MIC (Staphylococcus aureus): 16 µg/mL (≈ 41.4 µM) | MIC [1]: 16 µg/mL (≈ 41.4 µM) | MIC (Klebsiella pneumoniae): 500 µg/mL (≈ 1290 µM) | MIC (Enterococcus faecalis): 16 µg/mL (≈ 41.4 µM)

Cc1ccc(C)n1-c1ccc(C(=O)NN=C(c2ccccc2)c2ccccc2)cc1
MIC (Candida tropicalis): 62.5 µg/mL (≈ 159 µM) | MIC (Saccharomyces cerevisiae): 62.5 µg/mL (≈ 159 µM) | MIC (Bacillus subtilis): 31.2 µg/mL (≈ 79.4 µM) | MIC (Escherichia coli): 500 µg/mL (≈ 1270 µM) | MIC (Pseudomonas aeruginosa): 500 µg/mL (≈ 1270 µM) | MIC (Aspergillus niger): 62.5 µg/mL (≈ 159 µM) | MIC (Staphylococcus aureus): 62.5 µg/mL (≈ 159 µM) | MIC [1]: 31.2 µg/mL (≈ 79.4 µM) | MIC (Klebsiella pneumoniae): 500 µg/mL (≈ 1270 µM) | MIC (Enterococcus faecalis): 31.2 µg/mL (≈ 79.4 µM)

CC(=O)N1N=C(c2ccc(-n3c(C)ccc3C)cc2)OC1c1ccc(Br)cc1 (stereo not given)
MIC (Candida tropicalis): 8 µg/mL (≈ 18.3 µM) | MIC (Saccharomyces cerevisiae): 31.2 µg/mL (≈ 71.3 µM) | MIC (Bacillus subtilis): 8 µg/mL (≈ 18.3 µM) | MIC (Escherichia coli): 500 µg/mL (≈ 1140 µM) | MIC (Pseudomonas aeruginosa): 500 µg/mL (≈ 1140 µM) | MIC (Aspergillus niger): 16 µg/mL (≈ 36.5 µM) | MIC (Staphylococcus aureus): 16 µg/mL (≈ 36.5 µM) | MIC [1]: 8 µg/mL (≈ 18.3 µM) | IC50 (Vero): 195 µM | MIC (Klebsiella pneumoniae): 31.2 µg/mL (≈ 71.3 µM) | MIC (Enterococcus faecalis): 31.2 µg/mL (≈ 71.3 µM) | IC50 (A549): 195 µM

Fc1ccc(-c2nnc(-c3ccc(-n4cccc4)cc3)o2)cc1C(F)(F)F
MIC (Candida tropicalis): 2 µg/mL (≈ 5.36 µM) | MIC (Saccharomyces cerevisiae): 4 µg/mL (≈ 10.7 µM) | MIC (Bacillus subtilis): 1 µg/mL (≈ 2.68 µM) | MIC (Escherichia coli): 2 µg/mL (≈ 5.36 µM) | MIC (Pseudomonas aeruginosa): 2 µg/mL (≈ 5.36 µM) | MIC (Aspergillus niger): 4 µg/mL (≈ 10.7 µM) | MIC (Staphylococcus aureus): 31.2 µg/mL (≈ 83.7 µM) | MIC [1]: 1 µg/mL (≈ 2.68 µM) | IC50 (Vero): 268 µM | MIC (Klebsiella pneumoniae): > 500 µg/mL | MIC (Enterococcus faecalis): 8 µg/mL (≈ 21.4 µM) | IC50 (A549): 270 µM

Cc1ccc(C)n1-c1ccc(C(=O)N/N=C/c2cccc([N+](=O)[O-])c2)cc1
MIC (Candida tropicalis): 16 µg/mL (≈ 44.2 µM) | MIC (Saccharomyces cerevisiae): 31.2 µg/mL (≈ 86.2 µM) | MIC (Bacillus subtilis): 31.2 µg/mL (≈ 86.2 µM) | MIC (Escherichia coli): 500 µg/mL (≈ 1380 µM) | MIC (Pseudomonas aeruginosa): 500 µg/mL (≈ 1380 µM) | MIC (Aspergillus niger): 16 µg/mL (≈ 44.2 µM) | MIC (Staphylococcus aureus): 31.2 µg/mL (≈ 86.2 µM) | MIC [1]: 62.5 µg/mL (≈ 172 µM) | MIC (Klebsiella pneumoniae): 500 µg/mL (≈ 1380 µM) | MIC (Enterococcus faecalis): 31.2 µg/mL (≈ 86.2 µM)

O=[N+]([O-])c1ccccc1-c1nnc(-c2ccc(-n3cccc3)cc2)o1
MIC (Candida tropicalis): 31.2 µg/mL (≈ 94 µM) | MIC (Saccharomyces cerevisiae): 31.2 µg/mL (≈ 94 µM) | MIC (Bacillus subtilis): 4 µg/mL (≈ 12 µM) | MIC (Escherichia coli): 4 µg/mL (≈ 12 µM) | MIC (Pseudomonas aeruginosa): 4 µg/mL (≈ 12 µM) | MIC (Aspergillus niger): 31.2 µg/mL (≈ 94 µM) | MIC (Staphylococcus aureus): 31.2 µg/mL (≈ 94 µM) | MIC [1]: 2 µg/mL (≈ 6.02 µM) | IC50 (Vero): 266 µM | MIC (Klebsiella pneumoniae): > 500 µg/mL | MIC (Enterococcus faecalis): 16 µg/mL (≈ 48.1 µM) | IC50 (A549): 267 µM

O=C(NNC(=O)c1ccccc1[N+](=O)[O-])c1ccc(-n2cccc2)cc1
MIC (Candida tropicalis): 31.2 µg/mL (≈ 89.2 µM) | MIC (Saccharomyces cerevisiae): 31.2 µg/mL (≈ 89.2 µM) | MIC (Bacillus subtilis): 16 µg/mL (≈ 45.7 µM) | MIC (Escherichia coli): 31.2 µg/mL (≈ 89.2 µM) | MIC (Pseudomonas aeruginosa): 16 µg/mL (≈ 45.7 µM) | MIC (Aspergillus niger): 31.2 µg/mL (≈ 89.2 µM) | MIC (Staphylococcus aureus): 62.5 µg/mL (≈ 178 µM) | MIC [1]: 8 µg/mL (≈ 22.8 µM) | IC50 (Vero): 182 µM | MIC (Klebsiella pneumoniae): > 500 µg/mL | MIC (Enterococcus faecalis): 31.2 µg/mL (≈ 89.2 µM) | IC50 (A549): 205 µM

Brc1ccc(-c2nnc(-c3ccc(-n4cccc4)cc3)o2)cc1
MIC (Candida tropicalis): 4 µg/mL (≈ 10.9 µM) | MIC (Saccharomyces cerevisiae): 31.2 µg/mL (≈ 85.3 µM) | MIC (Bacillus subtilis): 4 µg/mL (≈ 10.9 µM) | MIC (Escherichia coli): 4 µg/mL (≈ 10.9 µM) | MIC (Pseudomonas aeruginosa): 8 µg/mL (≈ 21.8 µM) | MIC (Aspergillus niger): 8 µg/mL (≈ 21.8 µM) | MIC (Staphylococcus aureus): 31.2 µg/mL (≈ 85.3 µM) | MIC [1]: 2 µg/mL (≈ 5.46 µM) | IC50 (Vero): 260 µM | MIC (Klebsiella pneumoniae): > 500 µg/mL | MIC (Enterococcus faecalis): 16 µg/mL (≈ 43.7 µM) | IC50 (A549): 264 µM

Clc1ccc(-c2nnc(-c3ccc(-n4cccc4)cc3)o2)cc1
MIC (Candida tropicalis): 4 µg/mL (≈ 12.4 µM) | MIC (Saccharomyces cerevisiae): 8 µg/mL (≈ 24.9 µM) | MIC (Bacillus subtilis): 4 µg/mL (≈ 12.4 µM) | MIC (Escherichia coli): 4 µg/mL (≈ 12.4 µM) | MIC (Pseudomonas aeruginosa): 4 µg/mL (≈ 12.4 µM) | MIC (Aspergillus niger): 16 µg/mL (≈ 49.7 µM) | MIC (Staphylococcus aureus): 31.2 µg/mL (≈ 97.1 µM) | MIC [1]: 2 µg/mL (≈ 6.22 µM) | IC50 (Vero): 253 µM | MIC (Klebsiella pneumoniae): > 500 µg/mL | MIC (Enterococcus faecalis): 16 µg/mL (≈ 49.7 µM) | IC50 (A549): 256 µM

C/C(=N/NC(=O)c1ccc(-n2c(C)ccc2C)cc1)c1ccc(N)cc1
MIC (Candida tropicalis): 62.5 µg/mL (≈ 180 µM) | MIC (Saccharomyces cerevisiae): 62.5 µg/mL (≈ 180 µM) | MIC (Bacillus subtilis): 62.5 µg/mL (≈ 180 µM) | MIC (Escherichia coli): 500 µg/mL (≈ 1440 µM) | MIC (Pseudomonas aeruginosa): 500 µg/mL (≈ 1440 µM) | MIC (Aspergillus niger): 62.5 µg/mL (≈ 180 µM) | MIC (Staphylococcus aureus): 31.2 µg/mL (≈ 90.2 µM) | MIC [1]: 31.2 µg/mL (≈ 90.2 µM) | MIC (Klebsiella pneumoniae): 500 µg/mL (≈ 1440 µM) | MIC (Enterococcus faecalis): 62.5 µg/mL (≈ 180 µM)

O=C(NNC(=O)c1cccc([N+](=O)[O-])c1)c1ccc(-n2cccc2)cc1
MIC (Candida tropicalis): 31.2 µg/mL (≈ 89.2 µM) | MIC (Saccharomyces cerevisiae): 31.2 µg/mL (≈ 89.2 µM) | MIC (Bacillus subtilis): 16 µg/mL (≈ 45.7 µM) | MIC (Escherichia coli): 16 µg/mL (≈ 45.7 µM) | MIC (Pseudomonas aeruginosa): 16 µg/mL (≈ 45.7 µM) | MIC (Aspergillus niger): 31.2 µg/mL (≈ 89.2 µM) | MIC (Staphylococcus aureus): 62.5 µg/mL (≈ 178 µM) | MIC [1]: 8 µg/mL (≈ 22.8 µM) | IC50 (Vero): 195 µM | MIC (Klebsiella pneumoniae): > 500 µg/mL | MIC (Enterococcus faecalis): 62.5 µg/mL (≈ 178 µM) | IC50 (A549): 203 µM

CC(=O)N1N=C(c2ccc(-n3c(C)ccc3C)cc2)OC1c1ccc(O)cc1 (stereo not given)
MIC (Candida tropicalis): 8 µg/mL (≈ 21.3 µM) | MIC (Saccharomyces cerevisiae): 31.2 µg/mL (≈ 83.2 µM) | MIC (Bacillus subtilis): 16 µg/mL (≈ 42.6 µM) | MIC (Escherichia coli): 62.5 µg/mL (≈ 166 µM) | MIC (Pseudomonas aeruginosa): 62.5 µg/mL (≈ 166 µM) | MIC (Aspergillus niger): 8 µg/mL (≈ 21.3 µM) | MIC (Staphylococcus aureus): 31.2 µg/mL (≈ 83.2 µM) | MIC [1]: 16 µg/mL (≈ 42.6 µM) | IC50 (Vero): 187 µM | MIC (Klebsiella pneumoniae): 31.2 µg/mL (≈ 83.2 µM) | MIC (Enterococcus faecalis): 31.2 µg/mL (≈ 83.2 µM) | IC50 (A549): 190 µM

O=[N+]([O-])c1cccc(-c2nnc(-c3ccc(-n4cccc4)cc3)o2)c1
MIC (Candida tropicalis): 31.2 µg/mL (≈ 94 µM) | MIC (Saccharomyces cerevisiae): 31.2 µg/mL (≈ 94 µM) | MIC (Bacillus subtilis): 8 µg/mL (≈ 24.1 µM) | MIC (Escherichia coli): 8 µg/mL (≈ 24.1 µM) | MIC (Pseudomonas aeruginosa): 8 µg/mL (≈ 24.1 µM) | MIC (Aspergillus niger): 31.2 µg/mL (≈ 94 µM) | MIC (Staphylococcus aureus): 31.2 µg/mL (≈ 94 µM) | MIC [1]: 8 µg/mL (≈ 24.1 µM) | IC50 (Vero): 251 µM | MIC (Klebsiella pneumoniae): > 500 µg/mL | MIC (Enterococcus faecalis): 31.2 µg/mL (≈ 94 µM) | IC50 (A549): 256 µM
